Values joined by “and” are separate entries in the source; they are usually repeats but may differ in a detail not shown here. Equal entries are not always repeated.
Key:
[1] = tested on: AML cell line U937; assay: Western immunoblotting of U937 cells for acetylated tubulin, p21 and PARP; format: cell-based; details: 2 μM 5-aza, 10 nM LBH589 or combination, 24 hours, western blot (FIG. 1)
Method: The AML cell line U937 is incubated with LBH589 or 5-aza as single agents or in combination.
U937 cells are treated with 2 μM 5-aza, 10 nM LBH589 or with a combination of 5-aza+LBH589 for 24 hours. Cells are lysed, proteins separated by SDS-PAGE and western immunoblotting analysis done with antibodies against acetylated tubulin, p21, PARP and β-actin (control for loading).

[2] = tested on: primary human AML blast cells; assay: Loss of viability of primary patient AML cells, trypan-blue exclusion; format: cell-based; details: one table row per patient (1-6)
Method: To further test the combination of LBH589+5-aza to induce cell death in AML, the U937 AML cell lines and fresh leukemia blast cells from AML patients are incubated with the compounds either as a combination or as single agents. Cell death is either monitored by cells staining for Annexin V (signifying apoptosis) or by counting live cells by trypan-blue exclusion. […] Importantly, no antagonism is observed when the two compounds are combined. […] Trypan-blue exclusion is used to count number of viable cells and percentage of dead cells for each treatment calculated and tabulated.

Compound	PARP cleavage as a measure of apoptotic cell death [1]	acetylation of alpha-tubulin [1]	expression of the cell growth inhibitor p21 [1]	% Cell Death ([2]; Aza 1 μM, listed as Aza)	% Cell Death ([2]; Aza 2 μM, listed as Aza)	% Cell Death ([2]; LBH-589 10 nM)	% Cell Death ([2]; LBH-589 50 nM)
Nc1ncn([C@@H]2O[C@H](CO)[C@@H](O)[C@H]2O)c(=O)n1 [5-aza, 5-azacytidine]	only a slight PARP cleavage	not	induces the expression	8.6% and 16.5% and 25.9% and 13.1% and 15% and 19.3%	10.1% and 19.3% and 28.5% and 15.9% and 22.6% and 40.4%		
Cc1[nH]c2ccccc2c1CCNCc1ccc(/C=C/C(=O)NO)cc1 [LBH589, N-hydroxy-3-[4-[[[2-(2-methyl-1H-indol-3-yl)-ethyl]-amino]methyl]phenyl]-2E-2-propenamide]	only a slight PARP cleavage	induces increased acetylation	induces the expression			15.4% and 22.3% and 41.9% and 19.5% and 73.7% and 35.9%	45.1% and 34.2% and 62.6% and 41.6% and 85.6% and 48.9%

Reference: patent US8093220B2, “Combination of an HDAC inhibitor and an antimetabolite” (Novartis AG, priority 2006, dated 2012)
